In patent EP4744665A1, “COMBINATION OF POLQ INHIBITOR COMPOUND AND ANTI-CANCER THERAPEUTIC AGENT OR RADIOTHERAPY” (Simcere Zaiming Pharmaceutical Co., Ltd., priority 2023, dated 2025):

How the values were obtained:
A549 = assay: Combined use with combination drug, matrix study, Bliss Independence model (Cell Titer Glo, 7 days); assay type: cell-based
Method: (§1) DLD-1 colorectal adenocarcinoma cells, DLD-1 BRCA2 (-/-) colorectal adenocarcinoma cells, SHP-77 human small cell lung cancer cells, NCI-H82 human small cell lung cancer cells, LNCAP prostate cancer cells, KURAMOCHI human ovarian cancer cells, A2780 human ovarian cancer cells, and NCI-H23 non-small cell lung cancer cells were cultured in a 1640 medium containing 10% fetal bovine serum. SKOV3 human ovarian cancer cells were cultured in a McCoy's 5A (modified) medium containing 10% fetal bovine serum. OVCAR3 ovarian cancer cells were cultured in a 1640 medium containing 20% fetal bovine serum and 10 µg/mL bovine insulin. MDA-MB-436 breast cancer cells (natural BRCA1 mutation) and A549 non-small cell lung cancer cells were cultured in a DMEM medium containing 10% fetal bovine serum. Capan-1 human pancreatic cancer cells (natural BRCA2 mutation) were cultured in an IMDM medium containing 20% fetal bovine serum. The cells were all cultured at 37 °C with 5% CO2. Cells at the logarithmic growth phase were available for the experiment.
(§2) 100 µL of the cell medium was added to rows A and H and columns 1 and 12 of a 96-well cell culture plate. Cultured cells were resuspended (adherent cells were digested with trypsin) and counted to give information on cell density and viability. The dilution ratio of the resuspended cells required for inoculating a fixed number of cells into 80 µL of the medium in each culture well was calculated based on the cell density information. After the resuspended cells were diluted with the corresponding medium, 80 µL of the diluted cells were transferred to columns 2-11 of rows B-G of a 96-well cell culture plate using an Eppendorf multi-channel pipette (60 wells in total for each plate). The cell culture plate was incubated overnight in an incubator at 37 °C with 5% CO2.
(§3) The test compound and the combination compound were dissolved in DMSO to give a 10 mM solution for later use. In the experiment, the compound was further diluted to the corresponding concentration according to the concentration designed in the experiment, and based on this concentration, serial gradient dilution was performed. Matrix study was performed at 8 or 7 dose concentrations of the test compound (the lowest dose concentration was 0, and other specific concentration values were shown in FIG. 1) and 7 or 8 dose concentrations of the combination compound (the lowest dose concentration was 0, and other specific concentration values were shown in FIG. 1). 10 µL of each of the diluted combination compound and test compound was added to the corresponding cell plate well, such that the final concentration of DMSO was 0.25%. The test compound and the cells were incubated in an incubator at 37 °C with 5% CO2 for another 7 days, Cell Titer Glo was added at 50 µL/well, and the luminescence value of each well was read using an Envision microplate reader.
(§4) The luminescence value of the well containing only the cell medium was taken as the background (RLUbackground, corresponding cell survival rate to be 0%), the cell well containing only 0.25% DMSO without the compound was taken as the maximum signal (RLUDMSO, corresponding cell survival rate to be 100%), and the luminescence values of the remaining wells containing cells and compounds at different concentrations were taken as RLUsample. The survival rate of each cell well was calculated as follows: Survival rate (%) = (RLUsample−RLUbackground)/(RLUDMSO−RLUbackground) × 100% [formula]
(§5) The interaction between drugs (synergistic, independent, or antagonistic) was statistically analyzed by the Bliss Independence model using Combenefit software (Bliss, C.I., Bacteriol. Rev., 1956, 20, 243-258). The model assumes that each drug acts independently. The theoretical expected action curve of the combination was calculated from the following equation: Bliss effect = effect A + effect B−effect A × effect B [formula] wherein effect A and effect B are the effects of drugs A and B alone at specific concentrations. […]

DLD-1 BRCA2 (-/-) = assay: as above; assay type: cell-based
Method: as §1, §2, §3, §4, §5

DLD1 = assay: as above; assay type: cell-based; conditions: combination with SN38 (Topoisomerase I inhibitor)
Method: as §1, §2, §3, §4, §5

MDA-MB-436 = assay: as above; assay type: cell-based
Method: as §1, §2, §3, §4, §5

NCIH23 = assay: as above; assay type: cell-based
Method: as §1, §2, §3, §4, §5

OVCAR3 = assay: as above; assay type: cell-based
Method: as §1, §2, §3, §4, §5

[1] = system: human breast cancer MDA-MB-436 cells; assay: Efficacy of combined use with olaparib in MDA-MB-436 xenograft tumor model; assay type: in vivo, NOD-SCID mice; conditions: 30 mg/kg QD intragastric in combination with 10 mg/kg olaparib QD
Description: The anti-tumor activity of the sodium salt of compound I used in combination with olaparib (MCE, 136925) was studied using a MDA-MB-436 subcutaneous tumor model. 24 female NOD-SCID mice (6-7 weeks old, Beijing Vital River Laboratory Animal Technology Co., Ltd.) were subcutaneously inoculated with 1 × 10^7 human breast cancer MDA-MB-436 cells (natural BRCA1 mutation, Nanjing Cobioer). When the tumors grew to 80-120 mm^3, the mice were randomly divided into four groups with six mice per group: a first group treated with vehicle control (QD) by intragastric administration, a second group treated with a 30 mg/kg solution of the sodium salt of compound I (QD) by intragastric administration, a third group treated with a 10 mg/kg olaparib solution (QD) by intragastric administration, and a fourth group treated with a 30 mg/kg solution of the sodium salt of compound I (QD) by intragastric administration and a 10 mg/kg olaparib solution (QD) by intragastric administration. The vehicle of olaparib was a solution containing 10% DMSO, 50% 2-hydroxypropyl-β-cyclodextrin (Aladdin-F2223139, 60% aqueous solution), and 40% water, the vehicle of the sodium salt of compound I was 10% (w/v) Vitamin E TPGS (Hanhong Chemical-BH-GN0100619-22 1101) aqueous solution, and the vehicle of the vehicle control group was a mixture of the vehicle of olaparib and the vehicle of the sodium salt of compound I (mixed at a volume ratio of 1:1). Mice had free access to food and water throughout the experiment.
Tumor diameters were measured twice weekly using a vernier caliper. The tumor volume (V) was calculated using the following formula: V = 0.5a × b^2, wherein a and b represent the long diameter and short diameter of the tumor, respectively.
Mouse body weight was measured twice weekly.
Two way ANOVA was used to compare the differences in tumor growth trend among groups, and a significant difference was considered when p < 0.05.

[2] = combination with AZD5305 (PARP inhibitor)
[3] = combination with Niraparib (PARP inhibitor)
[4] = combination with Olaparib (PARP inhibitor)
[5] = combination with Talazoparib (PARP inhibitor)

SMILES: COc1ccc(Cl)cc1-c1cc(C)ncc1C(=O)Nc1nc2ncc(-c3ccc(C#N)cc3)nc2s1.[Na] [Sodium salt of compound I, Sodium Salt of 4-(5-Chloro-2-methoxyphenyl)-N-[6-(4-cyanophenyl)thiazolo[4,5-b]pyrazin-2-yl]-6-methylnicotinamide]
- Combined effect (A549; combination with Cisplatin (Platinum derivative)): Synergistic
- Combined effect (A549; combination with Etoposide (Topoisomerase II inhibitor)): Synergistic
- Combined effect (DLD-1 BRCA2 (-/-); [2]): Synergistic
- Combined effect (DLD-1 BRCA2 (-/-); [3]): Synergistic
- Combined effect (DLD1): Synergistic
- Combined effect (MDA-MB-436; [2]): Synergistic
- Combined effect (MDA-MB-436; combination with AZD7648 (DNA-PK inhibitor)): Synergistic
- Combined effect (MDA-MB-436; [3]): Synergistic
- Combined effect (MDA-MB-436; [4]): Synergistic
- Combined effect (NCIH23; combination with RP3500 (ATR inhibitor)): Synergistic
- Combined effect (NCIH23; [5]): Synergistic
- Combined effect (OVCAR3; combination with Carboplatin (Platinum derivative)): Synergistic
- Combined effect (OVCAR3; [3]): Synergistic
- Combined effect (OVCAR3; [4]): Synergistic
- Combined effect (OVCAR3; [5]): Synergistic
- anti-tumor effect of combination with olaparib [1]: synergistic anti-tumor effect
- tumor volume ([1]; versus either single drug group): significantly lower
- safety ([1]; condition of mice, body weight): good safety
